Where a name gives a salt, the structure may show the parent alone.
target: T1, human recombinant ENPP1 (Homo sapiens, UniProt P22413); assay: ENPP1 enzyme assay with cGAMP substrate (AMP-Glo luminescence); assay type: biochemical; conditions: human recombinant ENPP1 3 ng/reaction, cGAMP 5 μM, 37° C. 90 minutes, read-out: Enzymatic activity (ENPP1 IC50)
T1 construct: purchased R & D systems
T1 sequence (P22413 1-925): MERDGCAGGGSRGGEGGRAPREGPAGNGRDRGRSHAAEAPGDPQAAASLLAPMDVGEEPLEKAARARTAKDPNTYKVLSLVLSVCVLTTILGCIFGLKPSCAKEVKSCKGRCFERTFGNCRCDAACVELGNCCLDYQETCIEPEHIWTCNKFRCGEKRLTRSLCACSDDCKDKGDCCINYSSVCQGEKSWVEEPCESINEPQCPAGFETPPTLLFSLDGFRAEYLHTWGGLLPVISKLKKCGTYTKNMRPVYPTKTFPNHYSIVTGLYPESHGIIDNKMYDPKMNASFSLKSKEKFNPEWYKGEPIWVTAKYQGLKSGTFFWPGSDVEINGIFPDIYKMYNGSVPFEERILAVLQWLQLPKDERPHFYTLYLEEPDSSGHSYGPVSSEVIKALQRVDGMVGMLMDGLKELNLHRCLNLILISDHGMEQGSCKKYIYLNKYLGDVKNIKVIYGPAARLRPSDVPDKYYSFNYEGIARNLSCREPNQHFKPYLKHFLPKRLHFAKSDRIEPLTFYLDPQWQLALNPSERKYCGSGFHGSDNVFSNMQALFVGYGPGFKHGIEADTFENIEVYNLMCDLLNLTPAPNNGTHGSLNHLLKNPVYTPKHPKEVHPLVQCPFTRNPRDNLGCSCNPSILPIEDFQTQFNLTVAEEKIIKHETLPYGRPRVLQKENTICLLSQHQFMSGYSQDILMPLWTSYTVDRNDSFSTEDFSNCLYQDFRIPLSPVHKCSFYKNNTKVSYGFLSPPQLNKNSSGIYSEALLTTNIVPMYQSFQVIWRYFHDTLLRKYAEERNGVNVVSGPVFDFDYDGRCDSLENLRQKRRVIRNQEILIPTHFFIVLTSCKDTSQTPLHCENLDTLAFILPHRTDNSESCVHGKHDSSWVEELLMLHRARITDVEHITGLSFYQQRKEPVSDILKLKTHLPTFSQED
Procedure: ENPP1 hydrolyzes nucleotides or nucleotide derivatives to produce nucleoside -5′-monophosphate and pyrophosphate. in addition, ENPP1 hydrolyzes 2′,3′-cGAMP to produce 5′-adenosine monophosphate (AMP) and 5′-guanosine monophosphate (GMP). AMP produced from the reaction is measured using the AMP-Glo® kit (Promega). The AMP-Glo® kit contains two reagents. The first reagent terminates the AMP-producing enzymatic reaction, removes ATP and converts the produced AMP into ADP. The second reagent converts ADP to ATP which is used to generate luminescence in the luciferase reaction. The amount of luminescence measured is proportional to the amount of AMP produced by ENPP1.
The final reaction mixture contains 50 mM Tris (pH 8.5) buffer, 250 mM NaCl, 0.5 mM. CaCl2, 1 μM ZnCl2, 5% glycerol and 1% DMSO. […] The reaction was initiated by addition of cGAMP (at a final concentration of 5 μM) and reacted at 37° C. for 90 minutes. At the end of the reaction, 10 μl of the AMP-Glo first reagent was added to stop the reaction and the result was stored at room temperature for […]. After storage, 20 μl of an AMP detection solution (a mixture of AMP-Glo II reagent and Kinase-Gio at a ratio of 1:100) was added and stored at room. temperature for 1 hour. Luminescence signals were measured using a Victor® plate reader (Perkin Elmer). The maximal activity control (containing enzymes and substrates only in the presence of 1% DMSO; MAX) and the minimal activity control (containing substrates and 1% DMSO; MIN) were evaluated simultaneously. In each experiment, serially diluted reference ENPP1 inhibitors were tested together. IC50, indicating % residual activity versus compound concentration was determined by fitting inhibition curves using the 3-parameter analysis of GraphPad Prism® software. Serially diluted samples of one compound were tested two or more times and an average IC50 of each compound was calculated.

Structure (SMILES) | IC50 [µM]
O=c1[nH]nc(-c2ccc(CNS(=O)(=O)c3cccs3)cc2)c2ccccc12 [Example 198, N-(4-(4-oxo-3,4-dihydrophthalazin-1-yl)benzyl)thiophene-2-sulfonamide] | > 10
COc1cc2c(-c3cccc(CNS(N)(=O)=O)c3)nn(C)c(=O)c2cc1OC [Compound No. 110, N-(3-(6,7-dimethoxy-3-methyl-4-oxo-3,4-dihydrophthalazin-1-yl)-benzyl) sulfamide] | 1 to 10
CC(C)(C)OC(=O)NCc1ccc(-c2nn(-c3ccccc3)c(=O)c3ccccc23)cc1 [Compound No. 12, tert-butyl (4-(4-oxo-3-phenyl-3,4-dihydrophthalazin-1-yl)benzyl)carbamate] | > 10
CC(C)n1nc(-c2ccc(CN)cc2)c2ccccc2c1=O [Compound No. 39, 4-(4-(aminomethyl)phenyl)-2-isopropylphthalazin-1-(2H)-one hydrochloride] | > 10
COc1cc2c(N3CCC(CNC(=O)OC(C)(C)C)CC3)n[nH]c(=O)c2cc1OC [Compound No. 133, tert-butyl ((1-(6,7-dimethoxy-4-oxo-3,4-dihydrophthalazin-1-yl)piperidin-4-yl)methyl)carbamate] | > 10
NS(=O)(=O)Nc1ccc(Cc2n[nH]c(=O)c3ccccc23)cc1F [Example 190, N-(2-fluoro-4-((4-oxo-3,4-dihydrophthalazin-1-yl)methyl)phenyl)sulfamide hydrochloride] | < 1
CC(C)(C)OC(=O)Nc1ccc(Cc2n[nH]c(=O)c3ccccc23)cc1 [Compound No. 147, tert-butyl (4-((4-oxo-3,4-dihydrophthalazin-1-yl)methyl)phenyl)carbamate] | > 10
CN(C(=O)OC(C)(C)C)c1ccc(Cc2n[nH]c(=O)c3ccccc23)cc1 [Compound No. 151, tert-butyl (4-((4-oxo-3,4-dihydrophthalazin-1-yl)methyl)phenyl) (methyl)carbamate] | > 10
COc1cc2c(N3CCC(CNS(N)(=O)=O)CC3)n[nH]c(=O)c2cc1OC [Compound No. 139, N-((1-(6,7-dimethoxy-4-oxo-3,4-dihydrophthalazin-1-yl)piperidin-4-yl)methyl)sulfamide hydrochloride] | < 1
NS(=O)(=O)NCc1cccc(-c2nn(Cc3ccccc3)c(=O)c3ccccc23)c1 [Compound No. 90, N-(3-(3-benzyl-4-oxo-3,4-dihydrophthalazin-1-yl)benzyl)sulfamide hydrochloride] | > 10
NS(=O)(=O)N1CCc2ccc(-c3n[nH]c(=O)c4ccccc34)cc2C1 [Compound No. 121, 7-(4-oxo-3,4-dihydrophthalazin-1-yl)-3,4-dihydroisoquinoline-2(1H) sulfamide hydrochloride] | < 1
CC(C)(C)OC(=O)NS(=O)(=O)Nc1cccc(-c2n[nH]c(=O)c3ccccc23)c1 [Compound No. 60, tert-butyl (N-(3-(4-oxo-3,4-dihydrophthalazin-1-yl)phenyl)sulfamoyl)carbamate] | > 10
COc1ccc2c(=O)[nH]nc(-c3ccc(CNS(=O)(=O)NC(=O)OC(C)(C)C)cc3)c2c1 [Compound No. 72] | > 10
COc1cc2c(-c3ccc(CN)cc3)n[nH]c(=O)c2cc1OC [Compound No. 48, 4-(4-(aminomethyl)phenyl)-6,7-dimethoxyphthalazin-1(2H)-one hydrochloride] | < 1
CC(C)(C)OC(=O)NS(=O)(=O)Nc1cccc(-c2nn(Cc3ccccc3)c(=O)c3ccccc23)c1 [Compound No. 62, tert-butyl (N-(3-(3-benzyl-4-oxo-3,4-dihydrophthalazin-1-yl)phenyl)sulfamoyl)carbamate] | > 10
CCn1nc(-c2ccc(CNS(N)(=O)=O)cc2)c2ccccc2c1=O [Compound No. 98, N-(4-(3-ethyl-4-oxo-3,4-dihydrophthalazin-1-yl)benzyl)sulfamide hydrochloride] | 1 to 10

Further lines, results first:

IC50 [µM] | Structure (SMILES)
> 10 | CS(=O)(=O)NCc1ccc(-c2n[nH]c(=O)c3ccccc23)cc1 [Example 195, N-(4-(4-oxo-3,4-dihydrophthalazin-1-yl)benzyl)methanesulfonamide]
1 to 10 | COc1cc2c(-c3ccc(CNS(=O)(=O)NC(=O)OC(C)(C)C)cc3)nn(C)c(=O)c2cc1OC [Compound No. 77, tert-butyl (N-(4-(6,7-dimethoxy-3-methyl-4-oxo-3,4-dihydrophthalazin-1-yl)benzyl)sulfamoyl)carbamate]
1 to 10 | COc1cc2c(-c3cccc(CNS(N)(=O)=O)c3)n[nH]c(=O)c2cc1OC [Compound No. 109, N-(3-(6,7-dimethoxy-4-oxo-3,4-dihydrophthalazin-1-yl)-benzyl) sulfamide]
< 1 | NS(=O)(=O)Nc1ccc(Cc2n[nH]c(=O)c3ccccc23)c(F)c1 [Example 189, N-(3-fluoro-4-((4-oxo-3,4-dihydrophthalazin-1-yl)methyl)phenyl)sulfamide hydrochloride]
< 1 | COc1cc2c(Cc3ccc4c(c3)CCN4S(N)(=O)=O)n[nH]c(=O)c2cc1OC [Example 187, 5-((6,7-dimethoxy-4-oxo-3,4-dihydrophthalazin-1-yl)methyl)indoline-1-sulfonamide hydrochloride]
< 1 | CN(Cc1ccc(-c2n[nH]c(=O)c3ccccc23)cc1)S(N)(=O)=O [Compound No. 127, N-methyl-N-(4-(4-oxo-3,4-dihydrophthalazin-1-yl)benzyl)sulfamide]
1 to 10 | COc1cc2c(-c3ccc(CNS(N)(=O)=O)cc3)nn(C)c(=O)c2cc1OC [Compound No. 108, N-(4-(6,7-dimethoxy-3-methyl-4-oxo-3,4-dihydrophthalazin-1-yl)benzyl)sulfamide hydrochloride]
1 to 10 | COc1cc2c(-c3ccc(CNS(N)(=O)=O)cc3F)n[nH]c(=O)c2cc1OC [Compound No. 112, N-(4-(6,7-dimethoxy-4-oxo-3,4-dihydrophthalazin-1-yl)-3-fluorobenzyl)sulfamide hydrochloride]
< 1 | CC(NS(N)(=O)=O)c1ccc(-c2n[nH]c(=O)c3ccccc23)cc1 (stereo not drawn) [Compound No. 123, N-(1-(4-(4-oxo-3,4-dihydrophthalazin-1-yl)phenyl)ethyl)sulfamide hydrochloride]
> 10 | COc1cc2c(Cc3cccc(N)c3)nn(C)c(=O)c2cc1OC [Example 157, 4-(3-aminobenzyl)-6,7-dimethoxy-2-methylphthalazin-1(2H)-one hydrochloride]
< 1 | COc1cc2c(-c3ccc(CNS(N)(=O)=O)c(F)c3)n[nH]c(=O)c2cc1OC [Compound No. 111, N-(4-(6,7-dimethoxy-4-oxo-3,4-dihydrophthalazin-1-yl)-2-fluorobenzyl)sulfamide hydrochloride]
> 10 | CC(C)n1nc(-c2ccc(CNS(N)(=O)=O)cc2)c2ccccc2c1=O [Compound No. 99, N-(4-(3-isopropyl-4-oxo-3,4-dihydrophthalazin-1-yl)benzyl)sulfamide trifluoroacetic acid]
> 10 | CC(C)(C)OC(=O)NCc1ccc(-c2nn(Cc3ccccc3)c(=O)c3ccccc23)cc1 [Compound No. 13]
> 10 | Cn1nc(-c2ccc3c(c2)CCN(S(=O)(=O)NC(=O)OC(C)(C)C)C3)c2ccccc2c1=O [Compound No. 84, tert-butyl ((6-(3-methyl-4-oxo-3,4-dihydrophthalazin-1-yl)-3,4-dihydroisoquinolin-2(1H)-yl)sulfonyl)carbamate]

Source: patent publication US20230159469A1, “NOVEL PHTHALAZINE DERIVATIVE HAVING ECTONUCLOEOTIDE PYROPHOSPHATASE/PHOSPHODIESTE RASE INHIBITORY ACTIVITY, AND USE THEREOF” (TXINNO BIOSCIENCE INC., priority 2020, published 2023)
